# Assay results taken from patent US9670242B2, “Tetracyclic anthraquinone derivatives” (Tianjin Hemay Bio-Tech Co., Ltd, priority 2012, dated 2017).
# Columns and labels:
# Type in all cases: cell-based, human
# SK-OV-3 cells = experiment: SK-OV-3 cell growth inhibition test (MTT assay); details: growth inhibition at 667 nM, 69 h
# Description: SK-OV-3 Cell Growth Inhibition Test (MTT Assay)
# Cell strains: SK-OV-3 (human ovarian cancer cell strains); MTT; antitumor compounds; DMSO.
# (§1) II. Reagents and Consumable Materials
# Culture medium: 90% McCoy's 5A+10% FBS; Pancreatin (0.25% (w/v) solution was formulated with PBS, 0.53 mM of EDTA was added in the formulation); PBS; 96-well culture plate.
# (§2) 1. A plate (10 cm) of cells in logarithmic growth phase that were normally cultured was collected;
# (§3) 2. The culture solution was sucked out. The plate was washed with 5 mL of PBS once or twice;
# (§4) 3. PBS was sucked out. 1.5 mL of 0.25% pancreatin was added to infiltrate the cells;
# 4. The pancreatin was sucked out. The culture plate was placed in an incubator. Digestion was carried out for about 5 min at 37° C.;
# (§5) 5. 4.5 mL of complete culture solution was added to the culture plate to stop the digestion. The cells were carefully scoured with micropipette (1 ml) to give a uniform cell suspension. The suspension was implanted into a 96-well cell culture disc by 4000 cells/100 μL per well. The culture plate was incubated overnight under 5% CO2 at 37° C. In day 2, 100 μL of culture solution comprising a compound was added in each well. The plate was further incubated for 69 h under 5% CO2 at 37° C.;
# (§6) 6. The culture solution was sucked out;
# (§7) 7. 100 μL of serum-free culture solution containing 0.5 mg/mL MTT was added in each well. The plate was incubated for 3 h;
# (§8) 8. The culture solution was carefully sucked out;
# 9. 100 μL of DMSO was added in each well and vibrated to dissolve;
# (§9) 10. OD values were determined at 490 nM.
# (§10) IV. Results and Treatments
# (§11) 1. Calculation of Relative Inhibition Ratio The inhibition ratio of a compound on cell growth=(PC−n)/(PC−NC)×100%
# (§12) PC: OD values of cells after normal growth in control wells without a compound;
# (§13) n: OD values of cells after growth in test wells with a compound;
# (§14) NC: Background OD values of blank wells without a compound and cells.
# BxPc-3 cells = experiment: BxPc-3 cell growth inhibition test (MTT assay); details: growth inhibition at 2000 nM, 70 h
# Description: BxPc-3 Cell Growth Inhibition Test (MTT Assay)
# Cell strains: BxPC-3 (human pancreatic cancer cell strains); MTT; antitumor compounds; DMSO.
# as §1
# (§15) Culture medium: 90% RPMI-1640+10% FBS; Pancreatin (0.25% (w/v) solution was formulated with PBS, 0.53 mM of EDTA was added in the formulation); PBS; 96-well culture plate.
# as §2, §3, §4
# 4. The culture plate was placed in an incubator. Digestion was carried out for about 8 min at 37° C.;
# as §5, with “5000” for “4000”, “70” for “69”
# as §6, §7, §8
# (§16) 9. 100 μL of DMSO was added into each well and vibrated to dissolve;
# as §9, §10, §11, §12, §13, §14
# NCI-H446 cells = experiment: NCI-H446 cell growth inhibition test (MTT assay); details: growth inhibition at 222 nM, 70 h
# Description: NCI-H446 Cell Growth Inhibition Test (MTT Assay)
# Cell strains: NCI-H446 (human small cell lung cancer cell strains); MTT; antitumor compounds; DMSO.
# as §1, §15, §2, §3, §4
# 4. The culture plate was placed in an incubator. Digestion was carried out for about 3 min at 37° C.;
# as §5, with “3” for “4.5”, “70” for “69”
# as §6, §7, §8, §16, §9, §10, §11, §12, §13, §14
# MDA-MB-453 cells = experiment: MDA-MB-453 cell growth inhibition test (SRB assay); details: growth inhibition at 2000 nM, 69.5 h
# Description: MDA-MB-453 Cell Growth Inhibition Test (SRB Assay)
# Cell strains: MDA-MB-453 (human breast cancer cell strains); SRB: 0.4% (w/v) working solution was formulated with 1% glacial acetic acid, reserved at 4° C.; antitumor compounds; DMSO.
# as §1
# Culture medium: 90% L15+10% FBS; pancreatin (0.25% (w/v) solution was formulated with PBS, 0.53 mM of EDTA was added in the formulation); PBS; 96-well culture plate.
# as §2, §3
# (§17) 3. 1.5 mL of 0.25% pancreatin was added to the plate to infiltrate the cells;
# (§18) 4. The pancreatin was sucked out. The culture plate was placed in an incubator. Digestion was carried out for about 3 min at 37° C.;
# as §5, with “4” for “4.5”, “uniform single” for “uniform”, “plate” for “disc”, “7000” for “4000”, “well.” for “well. The plate was further incubated for 69 h under 5% CO2 at 37° C.;”
# The plate was further incubated for 69.5 h under 5% CO2 at 37° C.;
# (§19) 6. The culture solution was sucked out. 100 uL of TCA fixed cells which were diluted to 10% were added to each well. The plate was kept in a refrigerator for 1 h at 4° C.
# (§20) 7. TCA stationary liquid was sucked out. Each well was washed with 150 μL of ddH2O five times;
# (§21) 8. After the stationary liquid was cleansed, the plate was dried in the air at the room temperature;
# (§22) 9. 60 μL of SRB staining solution was added in each well. The well was stained for 15 min at the room temperature;
# (§23) 10. The SRB staining solution was sucked out. Each well was washed with 150 μL of 1% glacial acetic acid five times;
# (§24) 11. After the SRB staining solution was cleansed, the plate was dried in the air at the room temperature;
# (§25) 12. 100 μL of 10 mM Tris was added in each well. The plate was vibrated to dissolve out SRB;
# (§26) 13. OD values were determined at 570 nM.
# as §10, §11, §12, §13, §14
# 22Rv1 cells = experiment: 22Rv1 cell growth inhibition test (SRB assay); details: growth inhibition at 222 nM, 73 h
# Description: 22Rv1 Cell Growth Inhibition Test (SRB Assay)
# Cell strains: 22Rv1 (human prostate cancer cell strains); SRB: 0.4% (w/v) working solution was formulated with 1% glacial acetic acid, reserved at 4° C.; antitumor compounds; DMSO.
# as §1, §15, §2, §3, §17, §18
# as §5, with “4” for “4.5”, “uniform single” for “uniform”, “plate” for “disc”, “7000” for “4000”, “73” for “69”
# as §19, §20, §21, §22, §23, §24, §25, §26, §10, §11, §12, §13, §14
SMILES,Inhibition Ratio (%) (SK-OV-3 cells),Inhibition Ratio (%) (BxPc-3 cells),Inhibition Ratio (%) (NCI-H446 cells),Inhibition Ratio (%) (MDA-MB-453 cells),Inhibition Ratio (%) (22Rv1 cells)
COc1cccc2c1C(=O)c1c(O)c3c(c(O)c1C2=O)CC(O)(C(=O)COC(=O)CCC(=O)N1CCN(CCCN(C)C)CC1)CC3OC1CC(n2cccc2)C(O)C(C)O1 (stereo not drawn) [Example 44],52.3,78.5,46.3,68.5,48.5
COc1cccc2c1C(=O)c1c(O)c3c(c(O)c1C2=O)CC(O)(C(=O)COC(=O)CCC(=O)N(CCO)CCO)CC3OC1CC(n2cccc2)C(O)C(C)O1 (stereo not drawn) [Example 64],65.9,83.7,51.6,73.5,54.8
COc1cccc2c1C(=O)c1c(O)c3c(c(O)c1C2=O)CC(O)(C(=O)COC(=O)CCC(=O)N1CCN(CCO)CC1)CC3OC1CC(n2cccc2)C(O)C(C)O1 (stereo not drawn) [Example 8],60,82.6,59.5,75.3,56.8
COc1cccc2c1C(=O)c1c(O)c3c(c(O)c1C2=O)CC(O)(C(=O)COC(=O)CCC(=O)NCCc1ccccn1)CC3OC1CC(n2cccc2)C(O)C(C)O1 (stereo not drawn) [Example 34],59.4,84,60.7,80.5,63.3
COc1cccc2c1C(=O)c1c(O)c3c(c(O)c1C2=O)CC(O)(C(=O)COC(=O)CCC(=O)Nc1ccc(N2CCOCC2)nc1)CC3OC1CC(n2cccc2)C(O)C(C)O1 (stereo not drawn) [Example 20],62.6,84.1,68,82.4,60.9
COc1cccc2c1C(=O)c1c(O)c3c(c(O)c1C2=O)CC(O)(C(=O)COC(=O)CCC(=O)NCCCN1CCCC1)CC3OC1CC(n2cccc2)C(O)C(C)O1 (stereo not drawn) [Example 18],47.4,70.7,,,
COc1cccc2c1C(=O)c1c(O)c3c(c(O)c1C2=O)CC(O)(C(=O)COC(=O)CCC(=O)NN1CCN(C)CC1)CC3OC1CC(n2cccc2)C(O)C(C)O1 (stereo not drawn) [Example 14],53.6,81.8,,74.4,52.1
COc1cccc2c1C(=O)c1c(O)c3c(c(O)c1C2=O)CC(O)(C(=O)COC(=O)CCC(=O)NCCCN1CCOCC1)CC3OC1CC(n2cccc2)C(O)C(C)O1 (stereo not drawn) [Example 12],48.8,74.9,54.6,73.7,53.3
COc1cccc2c1C(=O)c1c(O)c3c(c(O)c1C2=O)CC(O)(C(=O)COC(=O)CCC(=O)NS(C)(=O)=O)CC3OC1CC(n2cccc2)C(O)C(C)O1 (stereo not drawn) [Example 94],71.4,84.9,48.4,75.8,60.7
CCN1CCN(C(=O)CCC(=O)OCC(=O)C2(O)Cc3c(O)c4c(c(O)c3C(OC3CC(n5cccc5)C(O)C(C)O3)C2)C(=O)c2c(OC)cccc2C4=O)CC1 (stereo not drawn) [Example 40],47.9,76.5,49,73,50.5
COc1cccc2c1C(=O)c1c(O)c3c(c(O)c1C2=O)CC(O)(C(=O)COC(=O)CCC(=O)NN1CCOCC1)CC3OC1CC(n2cccc2)C(O)C(C)O1 (stereo not drawn) [Example 10],71.5,85,61.1,78.5,62.7
COc1cccc2c1C(=O)c1c(O)c3c(c(O)c1C2=O)CC(O)(C(=O)COC(=O)CCC(=O)Nc1cccnc1)CC3OC1CC(n2cccc2)C(O)C(C)O1 (stereo not drawn) [Example 24],61.4,84.7,61.8,79.8,63.6
COc1cccc2c1C(=O)c1c(O)c3c(c(O)c1C2=O)CC(O)(C(=O)COC(=O)CCC(=O)NCCc1ccncc1)CC3OC1CC(n2cccc2)C(O)C(C)O1 (stereo not drawn) [Example 32],59.7,83.4,59.3,78.3,61.7
COc1cccc2c1C(=O)c1c(O)c3c(c(O)c1C2=O)CC(O)(C(=O)COC(=O)CCC(=O)NCc1cccnc1)CC3OC1CC(n2cccc2)C(O)C(C)O1 (stereo not drawn) [Example 28],66.2,84.7,65.8,81.9,63.1
COc1cccc2c1C(=O)c1c(O)c3c(c(O)c1C2=O)CC(O)(C(=O)COC(=O)CCC(=O)NCCO)CC3OC1CC(n2cccc2)C(O)C(C)O1 (stereo not drawn) [Example 60],58.9,83.4,52.5,76.3,52.9
COc1cccc2c1C(=O)c1c(O)c3c(c(O)c1C2=O)CC(O)(C(=O)COC(=O)CCC(=O)NS(=O)(=O)c1ccccc1)CC3OC1CC(n2cccc2)C(O)C(C)O1 (stereo not drawn) [Example 95],66.3,80.6,,68.2,51.3
